From patent US20260287577A1, “APPLICATIONS OF HEPATOCYTE CO-CULTURE SYSTEM” (LifeNet Health, priority 2023, published 2026)
Where two headings read alike, the source gives them in different places.

Experiments:
Type in all cases: cell-based, human
[1] = system: MMP1 (matrix Metalloproteinase 1); test: cells; conditions: Homo sapiens
Procedure: (§1) Methods: The hepatic tri-culture system, including adult primary human hepatocytes (PHHs), endothelial cells and stromal cells, was cultured with and without primary KCs, at a ratio of 1 KC:4 PHH or 1 KC:2 PHH, in a glucocorticoid-containing or -free media. […] MTX or TGF-β1 or […] (LPS) cause hepatic injury. The injury leads to lipid accumulation, lipotoxicity and cytokines are produced. These activate the KCs and the liver sinusoidal endothelial cells (LSEC). Then stromal activation and gene expressions occur, leading to liver fibrosis.
(§2) Following exposure to methotrexate (MTX; 0.1 and 1 μM; Sigma-Aldrich, St. Louis, MO) or TGF-β1 (0.1 and 10 ng/ml; Miltenyi Biotec, Gaithersburg, MD) or vehicle (DMSO; 0.1% v/v), the expression of various genes known to have a role in fibrogenic responses (e.g., LGALS3, LOX, MMP1) was determined. MTX and TGF-β1 are known fibrogenic compounds Cell health was assessed by urea production and LDH release in the medium.
(§3) The experiments were done in a 96-well format according to the details shown below. […] The hepatocytes were from an individual adult lot. The Kupffer cells (KCs) were from an individual adult lot. The seeding density of the Kupffer cells to the hepatocytes was selected to mimic healthy or inflammatory physiological levels (1:4 or 1:2 ratio). The seeding of the KCs occurred on Day 1 of the culture (meaning 24 hours post-hepatocyte plating).
(§4) All hepatocyte plating was performed using TCPM with Dex (1 μM), as above. Four hours after hepatocyte plating, TCCM was added with and without Dex (half of the cultures with Dex, half without.) The media used were those as described above. The medium exchange process was to do 50% media changes following KC plating up until the compound addition.
(§5) Thawing and plating of the hepatocytes was done according to methods as known in the art. The next day (24 hours) after plating the cells, the KCs were added in TCCM with or without Dex (0.1 μM) at a 1:4 or 1:2 ratio to hepatocytes. The next day and subsequent days, 50% volume of medium was changed each day. Starting at day 5 of culture, the compounds tested were added in the 50% medium volume and allowed to go, unchanged, through Day 8 of culture (72 hr treatment); or to 120 hr treatment times. The treatment compounds were methotrexate (0.1 and 1.0 μM) and TGF-β1 (0.1 and 10 ng/ml).
(§6) The cell harvest and analytical endpoints were done as follows. Phase contrast images were captured each day. The media samples were collected for lactate dehydrogenase (LDH) assay at the end of each treatment period (i.e., 72 or 120 hours of treatment with each compound). The results were used to assess cell health. Cell lysates were harvested for gene expression analysis. 2 wells were combined per sample. The treatment samples were analyzed in triplicate. The following genes that have a role in fibrogenic response were observed. LGALS3 (Galectin3); LOX (lysyl oxidase), MMP1 (matrix Metalloproteinase 1); Housekeeping gene (β-actin). The images in FIGS. 44 and 45 are at 200×.

LOX (lysyl oxidase) = test: cells; conditions: Homo sapiens
Procedure: as §1, §2, §3, §4, §5, §6

LGALS3 (Galectin3) = test: cells; conditions: for fold induction at 0.1 µM / fold induction at 1 µM: Homo sapiens
Procedure: as §1, §2, §3, §4, §5, §6

[2] = system: genes known to have a role in fibrogenic responses (e.g., LGALS3, LOX, MMP1); test: Fibrogenic response gene expression overall, Example 9; conditions: DEX / no DEX, with / without KCs
Procedure: as §1, §2, §3, §4
Thawing and plating of the hepatocytes was done according to methods as known in the art. The next day (24 hours) after plating the cells, the KCs were added in TCCM with or without Dex (0.1 μM) at a 1:4 or 1:2 ratio to hepatocytes. […]
The cell harvest and analytical endpoints were done as follows. […] The treatment samples were analyzed in triplicate. […]

CN(Cc1cnc2nc(N)nc(N)c2n1)c1ccc(C(=O)N[C@@H](CCC(=O)O)C(=O)O)cc1 [MTX, methotrexate] showed a fold induction at 0.1 µM ([1]; 72 h, read-out: MMP1 fold induction Mean, 72 hours, with Dex, No KC, MTX 0.1 μM) of 1.2, a fold induction at 1 µM ([1]; 72 h, read-out: MMP1 fold induction Mean, 72 hours, with Dex, No KC, MTX 1 μM) of 1.2 and a fold induction at 0.1 µM ([1]; 72 h, read-out: MMP1 fold induction Mean, 72 hours, with Dex, with KCs, MTX 0.1 μM) of 1.1. For the same molecule, the fold induction at 1 µM ([1]; 72 h, read-out: MMP1 fold induction Mean, 72 hours, with Dex, with KCs, MTX 1 μM) was 0.9, the fold induction at 0.1 µM ([1]; 72 h, read-out: MMP1 fold induction Mean, 72 hours, without Dex, No KC, MTX 0.1 μM) was 0.9 and the fold induction at 1 µM ([1]; 72 h, read-out: MMP1 fold induction Mean, 72 hours, without Dex, No KC, MTX 1 μM) was 0.7. It also gave a fold induction at 0.1 µM ([1]; 72 h, read-out: MMP1 fold induction Mean, 72 hours, without Dex, with KCs, MTX 0.1 μM) of 1.2, a fold induction at 1 µM ([1]; 72 h, read-out: MMP1 fold induction Mean, 72 hours, without Dex, with KCs, MTX 1 μM) of 1.4 and a fold induction at 1 µM ([1]; 72 h, read-out: MMP1 gene expression, 1 μM MTX, presence of KCs, 72 hr only) of 1.4. For the same molecule, the fold induction at 1 µM ([1]; 120 h, read-out: MMP1 fold induction Mean, 120 hours, with Dex, No KC, MTX 1 μM) was 0.7, the fold induction at 0.1 µM ([1]; 120 h, read-out: MMP1 fold induction Mean, 120 hours, with Dex, with KCs, MTX 0.1 μM) was 1 and the fold induction at 1 µM ([1]; 120 h, read-out: MMP1 fold induction Mean, 120 hours, with Dex, with KCs, MTX 1 μM) was 0.6. The fold induction at 0.1 µM ([1]; 120 h, read-out: MMP1 fold induction Mean, 120 hours, without Dex, No KC, MTX 0.1 μM) was 0.7, the fold induction at 1 µM ([1]; 120 h, read-out: MMP1 fold induction Mean, 120 hours, without Dex, No KC, MTX 1 μM) was 0.7 and the fold induction at 0.1 µM ([1]; 120 h, read-out: MMP1 fold induction Mean, 120 hours, without Dex, with KCs, MTX 0.1 μM) was 0.7. For the same molecule, the fold induction at 1 µM ([1]; 120 h, read-out: MMP1 fold induction Mean, 120 hours, without Dex, with KCs, MTX 1 μM) was 0.9, the fold induction at 0.1 µM (LOX (lysyl oxidase); 72 h, read-out: LOX fold induction Mean, 72 hours, with Dex, No KC, MTX 0.1 μM) was 1.2 and the fold induction at 1 µM (LOX (lysyl oxidase); 72 h, read-out: LOX fold induction Mean, 72 hours, with Dex, No KC, MTX 1 μM) was 1.1. For the same molecule, the fold induction at 0.1 µM (LOX (lysyl oxidase); 72 h, read-out: LOX fold induction Mean, 72 hours, with Dex, with KCs, MTX 0.1 μM) was 1, the fold induction at 1 µM (LOX (lysyl oxidase); 72 h, read-out: LOX fold induction Mean, 72 hours, with Dex, with KCs, MTX 1 μM) was 1 and the fold induction at 0.1 µM (LOX (lysyl oxidase); 72 h, read-out: LOX fold induction Mean, 72 hours, without Dex, No KC, MTX 0.1 μM) was 1.1. The fold induction at 1 µM (LOX (lysyl oxidase); 72 h, read-out: LOX fold induction Mean, 72 hours, without Dex, No KC, MTX 1 μM) was 1.1, the fold induction at 0.1 µM (LOX (lysyl oxidase); 72 h, read-out: LOX fold induction Mean, 72 hours, without Dex, with KCs, MTX 0.1 μM) was 1.3 and the fold induction at 1 µM (LOX (lysyl oxidase); 72 h, read-out: LOX fold induction Mean, 72 hours, without Dex, with KCs, MTX 1 μM) was 1.5. For the same molecule, the fold induction at 1 µM (LOX (lysyl oxidase); 120 h, read-out: LOX fold induction Mean, 120 hours, with Dex, No KC, MTX 1 μM) was 0.8, the fold induction at 0.1 µM (LOX (lysyl oxidase); 120 h, read-out: LOX fold induction Mean, 120 hours, with Dex, with KCs, MTX 0.1 μM) was 1 and the fold induction at 1 µM (LOX (lysyl oxidase); 120 h, read-out: LOX fold induction Mean, 120 hours, with Dex, with KCs, MTX 1 μM) was 1.1. It also gave a fold induction at 0.1 µM (LOX (lysyl oxidase); 120 h, read-out: LOX fold induction Mean, 120 hours, without Dex, No KC, MTX 0.1 μM) of 1, a fold induction at 1 µM (LOX (lysyl oxidase); 120 h, read-out: LOX fold induction Mean, 120 hours, without Dex, No KC, MTX 1 μM) of 1.2 and a fold induction at 0.1 µM (LOX (lysyl oxidase); 120 h, read-out: LOX fold induction Mean, 120 hours, without Dex, with KCs, MTX 0.1 μM) of 1.4. The fold induction at 1 µM (LOX (lysyl oxidase); 120 h, read-out: LOX fold induction Mean, 120 hours, without Dex, with KCs, MTX 1 μM) was 1.5, the fold induction at 1 µM (LOX (lysyl oxidase); read-out: LOX gene expression, 1 μM MTX, presence of KCs, 72 hr and 120 hr) was no less than 1.5 and the fold induction at 0.1 µM (LGALS3 (Galectin3); 72 h, read-out: LGALS3 fold induction Mean, 72 hours, with Dex, No KC, MTX 0.1 μM) was 1. It also gave a fold induction at 1 µM (LGALS3 (Galectin3); 72 h, read-out: LGALS3 fold induction Mean, 72 hours, with Dex, No KC, MTX 1 μM) of 1.2, a fold induction at 0.1 µM (LGALS3 (Galectin3); 72 h, read-out: LGALS3 fold induction Mean, 72 hours, with Dex, with KCs, MTX 0.1 μM) of 1 and a fold induction at 1 µM (LGALS3 (Galectin3); 72 h, read-out: LGALS3 fold induction Mean, 72 hours, with Dex, with KCs, MTX 1 μM) of 1.1. The fold induction at 0.1 µM (LGALS3 (Galectin3); 72 h, read-out: LGALS3 fold induction Mean, 72 hours, without Dex, No KC, MTX 0.1 μM) was 1.2, the fold induction at 1 µM (LGALS3 (Galectin3); 72 h, read-out: LGALS3 fold induction Mean, 72 hours, without Dex, No KC, MTX 1 μM) was 1.2 and the fold induction at 0.1 µM (LGALS3 (Galectin3); 72 h, read-out: LGALS3 fold induction Mean, 72 hours, without Dex, with KCs, MTX 0.1 μM) was 1.5. It also gave a fold induction at 1 µM (LGALS3 (Galectin3); 72 h, read-out: LGALS3 fold induction Mean, 72 hours, without Dex, with KCs, MTX 1 μM) of 1.7, a fold induction at 0.1 µM (LGALS3 (Galectin3); 120 h, read-out: LGALS3 fold induction Mean, 120 hours, with Dex, No KC, MTX 0.1 μM) of 1.2 and a fold induction at 1 µM (LGALS3 (Galectin3); 120 h, read-out: LGALS3 fold induction Mean, 120 hours, with Dex, No KC, MTX 1 μM) of 1.1. The fold induction at 0.1 µM (LGALS3 (Galectin3); 120 h, read-out: LGALS3 fold induction Mean, 120 hours, with Dex, with KCs, MTX 0.1 μM) was 0.9, the fold induction at 1 µM (LGALS3 (Galectin3); 120 h, read-out: LGALS3 fold induction Mean, 120 hours, with Dex, with KCs, MTX 1 μM) was 1.1 and the fold induction at 0.1 µM (LGALS3 (Galectin3); 120 h, read-out: LGALS3 fold induction Mean, 120 hours, without Dex, No KC, MTX 0.1 μM) was 1.1. It also gave a fold induction at 1 µM (LGALS3 (Galectin3); 120 h, read-out: LGALS3 fold induction Mean, 120 hours, without Dex, No KC, MTX 1 μM) of 0.2, a fold induction at 0.1 µM (LGALS3 (Galectin3); 120 h, read-out: LGALS3 fold induction Mean, 120 hours, without Dex, with KCs, MTX 0.1 μM) of 1.4 and a fold induction at 1 µM (LGALS3 (Galectin3); 120 h, read-out: LGALS3 fold induction Mean, 120 hours, without Dex, with KCs, MTX 1 μM) of 1.4. The LGALS3 gene expression (LGALS3 (Galectin3); MTX at both concentrations, presence of KCs, 120 hr versus 72 hr) was “slight decline” and the “culture conditions in which effects on fibrogenic genes were observed” value [2] was “observed on the no DEX treated groups with KCs”.
